# Laboratory results as given in US10563244B2, “Nanopatterned extracellular matrices enable cell-based assays with a mass spectrometric readout” (NORTHWESTERN UNIVERSITY, priority 2016, dated 2020).
# System: cellular phosphatases (phosphotyrosine phosphatases) in HeLa cells
# Experiment: TCAL-SAMDI cell-based phosphatase activity assay (HeLa cells on fibronectin nanoarrays, lysis, SAMDI-MS readout)
# Description: Cell-Based Assay for Enzyme Activity. HeLa cells were obtained from ATCC and cultured in DMEM medium supplemented with fetal bovine serum, glutamine, penicillin and streptomycin. All cells were cultured in a humidified incubator at 37° C. and 5% CO2. Cells were trypsinized and suspended in media, and the average number of cells per μL was estimated using a hemocytometer to seed the desired number of cells per spot. The volume of media per spot was 3 μL for all experiments. Cells were cultured on the monolayers presenting fibronectin and the phosphatase peptide substrate on glass slides for 2 hours under standard growth conditions. Lysis buffer (1 μL) was delivered manually to each spot and the lysate was allowed to react with the monolayer for 1 hour at 37° C. in a humidity chamber. […] A solution of 2,4,6-trihydroxyacetopehenone (THAP) in acetone (30 mg/mL) was delivered to each spot on the array and the surfaces were analyzed using an Applied Biosystems 5800 MALDI TOF/TOF instrument with a 20 kV accelerating voltage in positive reflector mode. […]
# HeLa cells were seeded on the fibronectin nanopatterned surfaces and cultured the cells for two hours under standard media conditions (FIG. 4A). […] The mixed monolayer was rinsed with PBS buffer and then treated with 2,4,6-trihydroxyacetophenone (THAP) matrix (30 mg/mL in acetone) and analyzed with SAMDI-MS. […]
smiles,measurement,setting,value
"O=C(CBr)c1ccc(O)cc1 [PTPI-I, PTP Inhibitor I]",decrease in phosphatase activity,"HeLa cells, 300 μM added to cell cultures, two hour culture period, then lysis and SAMDI-MS",92%
same,"phosphatase activity after addition of inhibitor (SAMDI spectra, FIG. 4C)","figure legend says inhibitor added to the lysis buffer, HeLa cells on patterned monolayers",loss of phosphatase activity
